“Also recorded” adds a separate entry of the source. Like-named read-outs stand apart in the source and are kept apart here.
How the values were obtained:
[1] = biological target: T1, TNKS2 (Homo sapiens, UniProt Q9H2K2); test: Western blot of TNKS2 levels in HEK293A cells transfected with PROTAC-encoding plasmids; assay type: cell-based; conditions: 20 hours after transfection, actin loading control
T1 construct: endogenous in cells; host or cells: HEK293A
T1 sequence (Q9H2K2 1-1166): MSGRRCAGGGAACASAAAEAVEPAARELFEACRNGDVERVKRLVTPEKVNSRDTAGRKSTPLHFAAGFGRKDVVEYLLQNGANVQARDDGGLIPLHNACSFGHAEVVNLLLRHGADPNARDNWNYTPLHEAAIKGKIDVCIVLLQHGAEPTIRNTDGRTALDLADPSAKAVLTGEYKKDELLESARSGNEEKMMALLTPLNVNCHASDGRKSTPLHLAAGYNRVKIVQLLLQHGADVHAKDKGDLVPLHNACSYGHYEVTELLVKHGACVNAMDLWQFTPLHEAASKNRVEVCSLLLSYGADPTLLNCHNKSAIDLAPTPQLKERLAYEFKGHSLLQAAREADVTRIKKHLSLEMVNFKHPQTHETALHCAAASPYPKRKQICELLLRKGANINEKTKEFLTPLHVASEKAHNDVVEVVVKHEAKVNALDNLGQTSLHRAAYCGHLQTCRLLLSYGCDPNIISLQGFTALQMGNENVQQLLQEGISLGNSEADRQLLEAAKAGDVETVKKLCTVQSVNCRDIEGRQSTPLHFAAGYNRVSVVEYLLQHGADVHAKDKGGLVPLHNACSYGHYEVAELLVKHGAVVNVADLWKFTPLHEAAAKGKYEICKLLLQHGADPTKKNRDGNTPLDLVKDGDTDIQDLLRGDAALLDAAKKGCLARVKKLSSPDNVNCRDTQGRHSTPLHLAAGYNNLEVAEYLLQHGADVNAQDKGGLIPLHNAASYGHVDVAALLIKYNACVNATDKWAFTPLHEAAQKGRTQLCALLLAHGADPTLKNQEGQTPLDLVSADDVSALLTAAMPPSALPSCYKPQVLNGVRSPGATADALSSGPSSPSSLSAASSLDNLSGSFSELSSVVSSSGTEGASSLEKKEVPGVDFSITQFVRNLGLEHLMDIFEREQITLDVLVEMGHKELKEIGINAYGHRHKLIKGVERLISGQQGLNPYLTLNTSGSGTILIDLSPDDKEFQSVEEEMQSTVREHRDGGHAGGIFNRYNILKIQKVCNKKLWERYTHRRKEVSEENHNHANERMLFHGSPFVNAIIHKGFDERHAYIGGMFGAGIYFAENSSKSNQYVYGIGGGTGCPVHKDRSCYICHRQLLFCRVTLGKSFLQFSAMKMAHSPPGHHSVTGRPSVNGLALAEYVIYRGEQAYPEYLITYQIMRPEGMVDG
Excerpt: A DNA construct encoding for the TNKS2 binding sequence (3BP2^410-425) at the N-terminus as set out in SEQ ID NO: 1, a GGGGSS linker as set out in SEQ ID NO: 3, and the E3 binding sequence (ALAPYIP) as set out in SEQ ID NO: 2, at the C-terminus was cloned into pMOST25 vector (the full PROTAC as set out in SEQ ID NO: 4). pMOST25 is a lentiviral vector based on pCDH EF1a (System Biosciences) where the promoter was swapped for CMV and the MCS replaced by a new cassette with flanking NGS primer sites. Control constructs which (i) lacked the ALAPYIP E3 binding sequence (3BP2^410-425) as set out in SEQ ID NO: 5 or (ii) contained a double mutation which is known to disrupt HIF1α-VHL interaction (3BP2^410-425-ALAAAIP) as set out in SEQ ID NO: 6 were similarly cloned (Table 1). Neither control construct can bind to the E3 ligase and therefore there should be no change in the level of TNKS2 when cells are transduced with these. HEK293A cells were collected 20 hours after transfection, and levels of TNKS2 target protein were assessed by Western Blot (FIG. 2). Membranes were probed with primary antibodies against TNKS2 (Abcam ab155545), or actin (Abcam ab179467) as a loading control. […]
20 hours after transfection, cells were harvested and analyzed by Western Blotting. […]

[2] = tested on: GFP; conditions: HEK293A
Description: GFP was used as the target (test protein) in this study.
GFP-peptide expressing cells were either untreated (DMSO treatment only; ‘Peptide+vehicle’) or treated with the proteasome inhibitor MG132 (10 μM in DMSO, for 4 h) (‘Peptide+MG132’), and were then analyzed by FACS for GFP levels (FIG. 8).

[3] = tested on: GFP; conditions: HEK293A; remark: listed apart in the source
Description: Plasmids encoding for GFP alone (control), or GFP tagged with one of the validated candidate peptide hits from the screening method, Hit (#1) (see Example 5) or Hit (#2), were transduced into HEK293A cells using lentivirus. Cells expressing tagged GFP were either untreated (DMSO treatment only) or treated with the proteasome inhibitor MG132 for 4 hours, after which they were harvested and analyzed by Western Blotting. Membranes were probed with primary antibodies against GFP (CST #2555), or actin (Abcam ab179467) as a loading control. After the addition of HRP-conjugated secondary antibodies, protein signals were detected by chemiluminescence (FIG. 9).

[4] = biological target: TNKS2 (residues 20-800) (Homo sapiens, UniProt Q9H2K2); conditions: read-out: affinity of binding to TNKS2; fluorescence polarization; Guettler et al., 2011; cited from earlier work

MGLPHLQRSPPDGQSFRSLEGGGGSSLDPETGEYL (3BP2(410-425) - LDPETGEYL peptide) [3BP2^410-425-LDPETGEYL]
levels of TNKS2 by Western blot [1]: unaffected

MQNNPLTSGLEPSPPQCDYIRPSLTGKFAGNPWYYGKVTRHQAEMA [Hit (#1)]
GFP levels by FACS compared to no peptide control ([2]; Peptide+MG132 (10 μM, 4 h)): restored GFP levels back to that of the ‘no peptide control’ cells
GFP levels by FACS compared to no peptide control ([2]; Peptide+vehicle (DMSO only)): marked degradation of GFP
GFP levels by Western blot ([3]; MG132 treated 4 hours): GFP levels were restored
GFP levels by Western blot compared to GFP control ([3]; absence of MG132): almost complete depletion of GFP

MGLPHLQRSPPDGQSFRSLEGGGGSSAALAPYIP (3BP2(410-425)- ALAPYIP peptide) [3BP2^410-425-ALAPYIP]
levels of TNKS2 by Western blot [1]: led to TNKS2 degradation; also recorded: markedly decreased levels of TNKS2

LPHLQRSPPDGQSFRS
Kd [4]: 500 nM

— patent US12529162B2, “Method of screening for peptides capable of binding to a ubiquitin protein ligase (E3)” (Phoremost Limited, priority 2019, dated 2026)
